Read-outs that look alike come from different tables or passages of the source.
Columns and labels:
CB2 receptor = molecular target: T1, CB2 receptor (Rattus norvegicus, UniProt Q9QZN9); assay: Cannabinoid CB2 receptor-binding activity ([3H]CP55940 binding experiment), rat spleen membrane specimen
T1 construct: from tissue; host or cells: rat spleen membrane specimen
T1 sequence (Q9QZN9 1-360): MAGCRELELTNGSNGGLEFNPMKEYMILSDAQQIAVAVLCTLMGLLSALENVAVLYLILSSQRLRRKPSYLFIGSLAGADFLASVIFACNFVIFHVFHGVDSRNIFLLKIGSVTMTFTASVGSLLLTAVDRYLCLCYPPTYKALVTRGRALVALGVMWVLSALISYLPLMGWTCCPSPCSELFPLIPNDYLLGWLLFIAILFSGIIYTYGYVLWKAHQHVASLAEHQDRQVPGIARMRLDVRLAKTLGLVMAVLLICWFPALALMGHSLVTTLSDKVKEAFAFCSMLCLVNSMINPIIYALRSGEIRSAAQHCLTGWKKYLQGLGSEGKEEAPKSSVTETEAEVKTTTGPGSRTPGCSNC
Procedure: A test was carried out according to the method of Hillard et al. [The Journal of Pharmacology and Experimental Therapeutics, vol. 289, p. 1427 (1999)]. A rat forebrain membrane specimen and a rat spleen membrane specimen were prepared and used in a binding experiment for a CB1 receptor and a binding experiment for a CB2 receptor, respectively. The membrane specimen (forebrain: final concentration of 0.5 mg of protein/mL, spleen: final concentration of 2 mg of protein/mL) was incubated together with a test compound and [^3H]CP55940 (manufactured by PerkinElmer) ((−)-cis-3-[2-hydroxy-[3,5-^3H]-4-(1,1-dimethylheptyl)phenyl]-trans-4-(3-hydroxypropyl)cyclohexanol)) (final concentration: 0.5 nmol/L) in an assay buffer (50 mmol/L Tris-HCl buffer (pH 7.4), 1 mmol/L EDTA and 3 mmol/L MgCl2) containing 0.1% bovine serum albumin at 25° C. for 1 hour, and the resulting mixture was filtered using a glass filter GF/C (manufactured by Whatman) treated with 1% polyethyleneimine. After the glass filter was washed with the assay buffer containing 0.2% bovine serum albumin, the radioactivity on the glass filter was measured using a liquid scintillation counter (TRI-CARB 2700TR, manufactured by Packard). The binding amount in the presence of 10 μmol/L […] (manufactured by Tocris) ((R)-(+)-[2,3-dihydro-5-methyl-3-(4-morpholinylmethyl)pyrrolo[1,2,3-de]-1,4-benzoxazin-6-yl]-1-naphthalenylmethanone) was considered to be a non-specific binding amount, and a difference between the total binding amount and the non-specific binding amount was considered to be a specific binding amount. The 50% inhibitory concentration (IC50 value) of the test compound against the specific binding was obtained, and the Ki value of the test substance was calculated from the 50% inhibitory concentration and the Kd value of the [^3H]CP55940 binding.

human CB2 receptor = molecular target: T2, human CB2 receptor (Homo sapiens, UniProt P34972); assay: GTPγS binding experiment via human CB2 receptor (membrane fraction of CHO-K1 cells); type: biochemical; details: for Emax: read-out: Emax value (maximum effect of CP55940 as 100%)
T2 construct: expressed in transfected cells
Procedure: A test was carried out according to the method of Hillard et al. [The Journal of Pharmacology and Experimental Therapeutics, vol. 289, p. 1427 (1999)]. As for a membrane specimen, a membrane fraction was prepared from CHO-K1 cells in which a human CB2 receptor [Nature, vol. 365, pp. 61-65 (1993)] was stably expressed and used. The membrane specimen (final concentration: 40 μg of protein/mL) was incubated together with a test compound and [^35S]GTPγS (manufactured by PerkinElmer) (final concentration: 0.05 nmol/L) in an assay buffer (50 mmol/L Tris-HCl buffer (pH 7.4), 100 mmol/L NaCl, 1 mmol/L EDTA, 3 mmol/L MgCl2, and 0.1% bovine serum albumin) containing 20 μmol/L guanosine 5′-diphosphate (GDP) at 30° C. for 1 hour, and the resulting mixture was filtered using a glass filter GF/B (manufactured by Whatman). After the glass filter was washed with the assay buffer, the radioactivity on the glass filter was measured using a liquid scintillation counter (TRI-CARB 2700TR, manufactured by Packard). The binding amount in the presence of 10 μmol/L GTPγS was considered to be a non-specific binding amount, and a difference between the total binding amount and the non-specific binding amount was considered to be a specific binding amount. The ratio of increase in the specific binding amount in the presence of the test compound to the specific binding amount in the absence of the test compound was considered to be an agonistic activity of the test compound. The concentration of the test compound that produces 50% of the maximum effect (EC50 value) was calculated by performing a nonlinear regression analysis using the concentration-response data. The percentage of the maximum effect of the test compound (Emax value) was calculated by considering the maximum effect of CP55940 (manufactured by Tocris) measured at the same time as 100%.

[1] = tested on: rats with chronic constriction nerve injury; assay: Analgesic effect in rats with chronic constriction nerve injury (von Frey filament); type: in vivo, rat; details: oral, dose of 50 mg/kg or less, one hour after administration, von Frey filaments
Excerpt: Rats with chronic constriction nerve injury were produced by partially modifying the method of Mosconi and Kruger et al. (Pain, vol. 64, pp. 37-57 (1996))
Male Crl:CD(SD) rats were used for the experiments. Under pentobarbital anesthesia, the sciatic nerve of the left hind limb of the rat was exfoliated, and the exfoliated region was wrapped with a polyethylene tube (trade name: Intramedic, size: PE-60, manufactured by Becton Dickinson and Company) of 2 mm in length. On days 14 to 21 after the surgery, the rats were placed in an acrylic connected cage with a wire mesh floor (900 mm (length)×210 mm (depth)×140 mm (height)) consisting of 4 cages connected in a row and allowed to acclimate to the environment for at least 20 minutes, and then, the pain was evaluated.
The von Frey filament (trade name: touch test sensory evaluator, Model number: model 58011, manufactured by Muromachi Kikai) was used to evaluate pain, and the results were calculated as a pain threshold. That is, by using a von Frey filament of different stimulus intensity, stimulation was given to the plantar surface of the injured side of rats with chronic constriction nerve injury, and the stimulus intensity to cause paw withdrawal response was obtained. Then, the 50% pain threshold (Paw withdrawal threshold) (g) was calculated by the up down method of Dixon [Annual Review of Pharmacology and Toxicology, vol. 20, pp. 441-462 (1980)].
In the evaluation of the test compound, rats with 50% pain threshold of less than 4 g were used, and the test compound was dissolved in a 0.5% aqueous methyl cellulose solution and orally administered at a dose of 5 mL/kg. One hour after the administration, the pain threshold was measured using von Frey filaments.

T2 sequence (P34972 whole entry): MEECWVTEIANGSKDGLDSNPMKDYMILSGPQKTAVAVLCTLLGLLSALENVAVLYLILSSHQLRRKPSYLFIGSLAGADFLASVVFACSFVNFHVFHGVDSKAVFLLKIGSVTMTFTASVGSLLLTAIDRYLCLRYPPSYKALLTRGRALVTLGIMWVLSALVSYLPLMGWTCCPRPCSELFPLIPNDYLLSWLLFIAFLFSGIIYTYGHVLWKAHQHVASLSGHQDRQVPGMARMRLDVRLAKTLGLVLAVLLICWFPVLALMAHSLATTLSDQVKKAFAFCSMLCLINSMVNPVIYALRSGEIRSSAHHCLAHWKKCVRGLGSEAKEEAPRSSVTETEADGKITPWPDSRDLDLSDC

SMILES | Ki (CB2 receptor) | EC50 (human CB2 receptor) | Emax (human CB2 receptor) | 50% pain threshold (paw withdrawal threshold) [1] | Ki (CB2 receptor; rat spleen membrane, [3H]CP55940 0.5 nmol/L, 25° C., 1 hour, read-out: Ki value against the CB2 receptor)
CN(C)C(=O)c1cncc(-c2cn(CC3(F)CCOCC3)c(C(C)(C)C)n2)n1 [Compound 186, 6-[2-tert-Butyl-1-(4-fluorotetrahydropyran-4-ylmethyl)-1H-imidazol-4-yl]-N,N-dimethylpyrazine-2-carboxamide] | < 1000 nM | < 1000 nM | > 30% | significantly increased the pain threshold | –
CCN(CC)C(=O)c1cncc(-c2cn(CC3CCOCC3)c(C(C)(C)C)n2)n1 [Compound 143, 6-[2-tert-Butyl-1-(tetrahydropyran-4-ylmethyl)-1H-imidazol-4-yl]-N,N-diethylpyrazine-2-carboxamide] | – | < 1000 nM | > 30% | significantly increased the pain threshold | < 1000 nM
CN(C)C(=O)c1cncc(-c2cn(CC3CCOCC3)c(C(C)(C)C)n2)n1 [Compound 153, 6-[2-tert-Butyl-1-(tetrahydropyran-4-ylmethyl)-1H-imidazol-4-yl]-N,N-dimethylpyrazine-2-carboxamide] | < 1000 nM | < 1000 nM | > 30% | significantly increased the pain threshold | –
CN(CC1CC1)C(=O)c1cncc(-c2cn(CC3CCOCC3)c(C(C)(C)C)n2)n1 [Compound 206, 6-[2-tert-Butyl-1-(tetrahydropyran-4-ylmethyl)-1H-imidazol-4-yl]-N-cyclopropylmethyl-N-methylpyrazine-2-carboxamide] | < 1000 nM | < 1000 nM | > 30% | significantly increased the pain threshold | –
CN(C(=O)c1cncc(-c2cn(CC3CCOCC3)c(C(C)(C)C)n2)n1)C1CC1 [Compound 205, 6-[2-tert-Butyl-1-(tetrahydropyran-4-ylmethyl)-1H-imidazol-4-yl]-N-cyclopropyl-N-methylpyrazine-2-carboxamide] | < 1000 nM | < 1000 nM | > 30% | significantly increased the pain threshold | –
CCCN(C)C(=O)c1cncc(-c2cn(CC3CCOCC3)c(C(C)(C)C)n2)n1 [Compound 144, 6-[2-tert-Butyl-1-(tetrahydropyran-4-ylmethyl)-1H-imidazol-4-yl]-N-methyl-N-propylpyrazine-2-carboxamide] | < 1000 nM | < 1000 nM | > 30% | significantly increased the pain threshold | –
CCN(C)C(=O)c1cc(-c2cn(CC3CCOCC3)c(C(C)(C)C)n2)cs1 [Compound 102, 4-[2-tert-Butyl-1-(tetrahydropyran-4-ylmethyl)-1H-imidazol-4-yl]-N-ethyl-N-methylthiophene-2-carboxamide] | < 1000 nM | < 1000 nM | > 30% | significantly increased the pain threshold | –
CCN(C)C(=O)c1cncc(-c2cn(CC3CCOCC3)c(C(C)(C)C)n2)n1 [Compound 146, 6-[2-tert-Butyl-1-(tetrahydropyran-4-ylmethyl)-1H-imidazol-4-yl]-N-ethyl-N-methylpyrazine-2-carboxamide] | < 1000 nM | < 1000 nM | > 30% | significantly increased the pain threshold | –
CCN(CC)C(=O)c1cccc(-c2cn(CC3CCOCC3)c(C(C)(C)C)n2)c1.Cl [Compound 76, 3-(2-tert-Butyl-1-(tetrahydropyran-4-ylmethyl)-1H-imidazol-4-yl)-N,N-diethylbenzamide hydrochloride] | < 1000 nM | < 1000 nM | > 30% | significantly increased the pain threshold | –
CCN(CC)C(=O)c1cc(-c2cn(CC3CCOCC3)c(C(C)(C)C)n2)ccc1Cl [Compound 65, 2-Chloro-5-(2-tert-butyl-1-(tetrahydropyran-4-ylmethyl)-1H-imidazol-4-yl)-N,N-diethylbenzamide] | < 1000 nM | < 1000 nM | > 30% | significantly increased the pain threshold | –
CC(C)(C)c1nc(-c2cccc([N+](=O)[O-])c2)cn1CC1CCOCC1 [Compound 70, 2-tert-Butyl-4-(3-nitrophenyl)-1-(tetrahydropyran-4-ylmethyl)-1H-imidazole] | < 1000 nM | < 1000 nM | > 30% | significantly increased the pain threshold | –
CCN(C)C(=O)c1cncc(-c2cn(CC3(F)CCOCC3)c(C(C)(C)C)n2)n1 [Compound 185, 6-[2-tert-Butyl-1-(4-fluorotetrahydropyran-4-ylmethyl)-1H-imidazol-4-yl]-N-ethyl-N-methylpyrazine-2-carboxamide] | < 1000 nM | < 1000 nM | > 30% | significantly increased the pain threshold | –
CCN(CC)C(=O)c1cncc(-c2cn(CC3CCOCC3)c(C(C)(C)C)n2)c1 [Compound 85, 5-(2-tert-Butyl-1-(tetrahydropyran-4-ylmethyl)-1H-imidazol-4-yl)-N,N-diethylnicotinamide] | < 1000 nM | < 1000 nM | > 30% | significantly increased the pain threshold | –
CCN(C)C(=O)c1cccc(-c2cn(CC3CCOCC3)c(C(C)(C)C)n2)c1.Cl [Compound 83, 3-(2-tert-Butyl-1-(tetrahydropyran-4-ylmethyl)-1H-imidazol-4-yl)-N-ethyl-N-methylbenzamide hydrochloride] | < 1000 nM | < 1000 nM | > 30% | significantly increased the pain threshold | –
